In US20050074404A1, “Methods for avoiding renal injury” (Pfizer Inc., priority 2002, published 2005):

Tests used:
[1] = Urinary retinol concentrations in rats (HPLC); format: in vivo, rat; details: 100 mg/kg intramuscular once per day, 24 h urine
Method: A. Dosing of Mammals, Collection and Storage of Urine
(§1) Male Sprague Dawley rats (105-125 grams each) were purchased from Charles River (Kingston, N.Y.). […] Rats were dosed intramuscular, using a 25 gauge tuberculin syringe. The animals were housed individually prior to urine collection. For the urine collection, rats were transferred to individual metabolism cages. At all times throughout the study, the animals had free access to food and water. […] Rats were dosed once per day for the duration of 1, 4 or 9 days. Urine was collected after one dose, four doses and nine doses. Each collection period was for 24 hours. Urine was collected, chilled to approximately 4° C. and protected from light. Total urine volume was measured at the end of each collection period prior to retinol analysis. The urine was stored at −80° C. and in darkness to protect the components of the urine from oxidation and degration until analysis.
B. Measurement of Retinol in Urine Samples
The acetonitrile, methanol, isopropanol and tetrahydrofuran (THF) were purchased from J. T. Baker (Phillipsburg, N.J.). The acetonitrile and methanol were HPLC grade and the isopropanol and THF were ACS reagent grade. The water in the mobile phase came from a Nanopure® water filtration system (Barnstead, Dubuque, Ind.). Retinol and retinol acetate standards were purchased from ICN Biomedicals (Costa Mesa, Calif.). The retinol palmitate was purchased from Sigma Chemicals (St. Louis, Mo.).
The HPLC instrumentation consisted of a Hewlett-Packard Model 1090 Series II system (Hewlett Packard Company, Palo Alto, Calif.) equipped with a tertiary gradient pump, diode array detector, and a cooled auto-sampler. Hewlett-Packard Chemstation™ software (Rev. 5.02) was used for data collection and analysis. Absorbance data for all retinols was collected at a wavelength of 340 nm. All separations were carried out on a 15 cm×2.0 mm, 5μ particle size, Prodigy ODS (2) HPLC column (Phenomenex, Torrance, Calif.). The column was equipped with an inlet filter, 0.5μ×1.5 mm (Phenomenex, Torrance, Calif.). […]

[2] = Urinary albumin concentrations in rats; format: in vivo, rat; details: 100 mg/kg once per day
Method: as §1

rat kidney [3] = assay: Histopathology of rat kidney (H & E); format: in vivo
Description: (§2) The physiological events that characterize the onset of phospholipidosis are well known to those with skill in the art (see, for example, Girton (2002)). […] Following endocytosis, the aminoglycoside accumulates in lysosomes. The lysosomes eventually swell with excess lipid debris. When visualized using electron-microscopy, the accumulated lipid appear as phospholipid inclusions, or myelin figures, within the lysosomes (Kosek et al. (1974)) (see FIG. 1 and FIG. 2 below). The phospholipid inclusions may also be visualized by staining with Sudan black as described, for example, in Presnell and Schreibman (1997) (see FIG. 3 below). The damage to renal tissue from phospholipidosis may be visualized by histological examination using hematoxylin and eosin staining (H & E) of the renal tissue damaged through phospholipidosis. The damage that is evident includes tubular degeneration, vacuolation and eventually, in advanced stages of damage, necrosis of the renal proximal tubule (see FIG. 5 and FIG. 6 below).
as §1

rat kidney [4] = assay: Sudan black staining of rat kidney for phospholipids; format: in vivo
Description: as §2, §1

rat proximal tubule = assay: Electron microscopy of rat proximal tubule; format: in vivo; details: four days of treatment with 100 mg/kg
Description: as §2
Male Sprague Dawley rats (105-125 grams each) were purchased from Charles River (Kingston, N.Y.). […] Rats were dosed intramuscular, using a 25 gauge tuberculin syringe. The animals were housed individually prior to urine collection. […] Total urine volume was measured at the end of each collection period prior to retinol analysis. […]

Gentamicin sulfate
Urinary retinol concentration ([1]; Day 1, mean of eight rats): 123.57 nM
Urinary retinol concentration ([1]; Day 4, mean of eight rats): 131.08 nM
Urinary retinol concentration ([1]; Day 9, mean of eight rats): 2457.13 nM
Urinary albumin concentration ([2]; Day 1, mean of eight rats): 163 µg/mL
Urinary albumin concentration ([2]; Day 4, mean of eight rats): 354 µg/mL
Urinary albumin concentration ([2]; Day 9, mean of eight rats): 1184 µg/mL
Histopathologic effects, onset (rat kidney [3]; 100 mg/kg once per day): do not begin to appear until day four
Chronic Progressive Nephropathy, slight, number of animals (rat kidney [3]; 100 mg/kg, Day 1, of 8 rats): 1
Hyaline droplets, slight, number of animals (rat kidney [3]; 100 mg/kg, Day 1, of 8 rats): 3
No significant findings, number of animals (rat kidney [3]; 100 mg/kg, Day 1, of 8 rats): 4
Chronic Progressive Nephropathy, slight, number of animals (rat kidney [3]; 100 mg/kg, Day 4, of 8 rats): 2
Hyaline droplets, mild, number of animals (rat kidney [3]; 100 mg/kg, Day 4, of 8 rats): 1
Hyaline droplets, slight, number of animals (rat kidney [3]; 100 mg/kg, Day 4, of 8 rats): 3
Tubular degeneration (1), mild, number of animals (rat kidney [3]; 100 mg/kg, Day 4, of 8 rats): 2
Tubular degeneration (1), slight, number of animals (rat kidney [3]; 100 mg/kg, Day 4, of 8 rats): 6
Tubular vacuolation, mild, number of animals (rat kidney [3]; 100 mg/kg, Day 4, of 8 rats): 3
Tubular vacuolation, slight, number of animals (rat kidney [3]; 100 mg/kg, Day 4, of 8 rats): 3
Hyaline droplets, mild, number of animals (rat kidney [3]; 100 mg/kg, Day 9, of 8 rats): 4
Hyaline droplets, slight, number of animals (rat kidney [3]; 100 mg/kg, Day 9, of 8 rats): 1
Tubular degeneration/necrosis/regeneration (3), marked, number of animals (rat kidney [3]; 100 mg/kg, Day 9, of 8 rats): 6
Tubular degeneration/necrosis/regeneration (3), severe, number of animals (rat kidney [3]; 100 mg/kg, Day 9, of 8 rats): 2
Tubular vacuolation, mild, number of animals (rat kidney [3]; 100 mg/kg, Day 9, of 8 rats): 2
Tubular vacuolation, moderate, number of animals (rat kidney [3]; 100 mg/kg, Day 9, of 8 rats): 4
Tubular vacuolation, slight, number of animals (rat kidney [3]; 100 mg/kg, Day 9, of 8 rats): 1
Rat kidney tissue histology (FIG. 5) (rat kidney [3]; four days of treatment with 100 mg/kg): early lesions formation
Rat kidney tissue histology (FIG. 6) (rat kidney [3]; nine days of treatment with 100 mg/kg): extensive kidney tissue damage
Significant Sudan black staining, onset (rat kidney [4]; 100 mg/kg once per day): not observed until day four
Sudan black staining negative, number of animals (rat kidney [4]; 100 mg/kg, Day 1, of 8 rats): 3
Sudan black staining slight, number of animals (rat kidney [4]; 100 mg/kg, Day 1, of 8 rats): 5
Sudan black staining mild, number of animals (rat kidney [4]; 100 mg/kg, Day 4, of 8 rats): 1
Sudan black staining mild-moderate, number of animals (rat kidney [4]; 100 mg/kg, Day 4, of 8 rats): 2
Sudan black staining moderate, number of animals (rat kidney [4]; 100 mg/kg, Day 4, of 8 rats): 2
Sudan black staining moderate-marked, number of animals (rat kidney [4]; 100 mg/kg, Day 4, of 8 rats): 3
Sudan black staining marked, number of animals (rat kidney [4]; 100 mg/kg, Day 9, of 8 rats): 1
Sudan black staining mild, number of animals (rat kidney [4]; 100 mg/kg, Day 9, of 8 rats): 1
Sudan black staining mild-moderate, number of animals (rat kidney [4]; 100 mg/kg, Day 9, of 8 rats): 1
Sudan black staining moderate, number of animals (rat kidney [4]; 100 mg/kg, Day 9, of 8 rats): 2
Sudan black staining moderate-marked, number of animals (rat kidney [4]; 100 mg/kg, Day 9, of 8 rats): 3
Sudan black staining (rat kidney [4]; after a single dose (100 mg/kg)): slight staining
Electron-micrograph finding in rat proximal tubule (FIG. 1) (rat proximal tubule): phospholipid inclusions or myelin figures
